From patent US8361988B2, “Nucleoside and nucleotide analogues with quaternary carbon centers and methods of use” (Institut de Recherches Cliniques de Montreal, priority 2007, dated 2013)

Columns and labels:
human dCK = human dCK (Homo sapiens, UniProt P27707); assay: Phosphorylation assay (spectrophotometric coupled-enzyme), human dCK; type: biochemical; conditions: substrate at 100 μM; 37° C.; 1 mM ATP; triplicate
Experimental: (§1) Compounds of the invention were also tested in a phosphorylation assay using three deoxynucleoside kinases. […] The compounds were at substrate concentration of 100 μM.
(§2) Kinetic assay. […] Briefly, the individual nucleosides at 100 μM were prepared in reaction buffer containing 50 mM Tris-HCl (pH 7.5), 0.1 M KCl, 5 mM MgCl2, 1 mM DTT, 1 mM ATP, 0.21 mM phosphoenolpyruvate, 0.18 mM NADH, and 2 units/ml pyruvate kinase and 2 units/ml lactate dehydrogenase (Roche Biochemicals, Indianapolis, Ind.). Assays were performed at 37° C. by measuring the absorbance change at 340 nm. The enzyme amount was adjusted to limit NADH turnover to 10% over the time of the experiment. All experiments were performed in triplicate.

[1] = target: T1, Drosophila melanogaster dNK (Drosophila melanogaster, UniProt Q9XZT6); assay: Phosphorylation assay (spectrophotometric coupled-enzyme), D. melanogaster dNK; type: biochemical; conditions: substrate at 100 μM; 37° C.; 1 mM ATP; triplicate
T1 sequence (Q9XZT6 1-250): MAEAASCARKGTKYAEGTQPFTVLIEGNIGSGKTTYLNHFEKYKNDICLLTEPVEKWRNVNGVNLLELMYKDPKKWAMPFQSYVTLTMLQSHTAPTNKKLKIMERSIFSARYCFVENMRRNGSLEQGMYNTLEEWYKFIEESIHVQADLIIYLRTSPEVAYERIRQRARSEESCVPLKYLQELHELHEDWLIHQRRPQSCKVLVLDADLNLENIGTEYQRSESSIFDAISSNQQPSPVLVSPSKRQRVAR
Experimental: as §1, §2

[2] = MTT cell proliferation assay, PFSK-1; type: cell-based; conditions: human, PFSK-1 cells, concentration causing 50% cell death of initial cell count over 24 hours, 1% DMSO
Experimental: (§3) The antitumor activities of the compounds of the invention were evaluated by a cellular proliferation assay. […] The cleavage reaction form a purple formazan crystals which is largely impermeable to cell membranes resulting in its accumulation within healthy cells. Solubilisation of the cells by addition of a detergent liberates and solubilizes the formazan crystals. The number of surviving cells is directly proportional to the level of the formazan product created. The color can then be quantified spectrophotometrically. The production of purple formazan in cells treated with a compound is measured relative to the production in control cells, and dose-response curves can be generated. This assay measures the cell proliferation rate and conversely, when metabolic events lead to apoptosis or necrosis, the reduction in cell viability, thus also allowing the evaluation of the cytotoxicity of the analogues synthesized in the laboratory.
(§4) For Tables 3 and 4, the assays were performed with 1% DMSO. The abbreviation “n.d.” means “not determined.” The values EC50, CC50, and SI have the following definitions.
(§5) Cell growth equals total cell count without any inhibitor after 72 hours minus initial cell count.
(§6) SI: Selectivity Index is the ratio CC50/EC50.

PFSK-1 = assay: MTT cell proliferation assay, PFSK-1; type: cell-based; conditions: Homo sapiens, concentration reducing cell growth by 50% after 72 hours, 1% DMSO
Experimental: as §3, §4, §5, §6

[3] = MTT cell proliferation assay, ZR-75-1; type: cell-based; conditions: human, ZR-75-1 cells, concentration causing 50% cell death of initial cell count over 24 hours, 1% DMSO
Experimental: (§7) The antitumor activities of the compounds of the invention were evaluated by a cellular proliferation assay. The MTT [3-(4,5-dimethylthiazol-2-yl)-2,5-diphenyltetrazolium bromide] cell proliferation assay, first described by Mosmann (Mosmann T., “Rapid colorimetric assay for cellular growth and survival: application to proliferation and cytotoxicity assays,” J. Immunol. Methods 1983 Dec. 16; 65(1-2):55-63, and incorporated by reference in its entirety) is based on the ability of active mitochondrial reductase enzymes from viable cells to cleave the tetrazolium rings of the pale yellow MTT. The cleavage reaction form a purple formazan crystals which is largely impermeable to cell membranes resulting in its accumulation within healthy cells. Solubilisation of the cells by addition of a detergent liberates and solubilizes the formazan crystals. The number of surviving cells is directly proportional to the level of the formazan product created. The color can then be quantified spectrophotometrically. The production of purple formazan in cells treated with a compound is measured relative to the production in control cells, and dose-response curves can be generated. This assay measures the cell proliferation rate and conversely, when metabolic events lead to apoptosis or necrosis, the reduction in cell viability, thus also allowing the evaluation of the cytotoxicity of the analogues synthesized in the laboratory.
as §4
(§8) Cell growth equals total cell count without any inhibitor after 72 hours minus initial cell count. Total cell counts after 72 hrs of growth range from 230 to 346% of initial cell counts depending on the cell line.
(§9) Total cell counts after 24 hrs of growth range from 103 to 109% of initial cell counts depending on the cell line.
as §6

ZR-75-1 = assay: MTT cell proliferation assay, ZR-75-1; type: cell-based; conditions: Homo sapiens, concentration reducing cell growth by 50% after 72 hours, 1% DMSO
Experimental: as §7, §4, §8, §9, §6

in vitro [4] = conditions: human, NCI H1395 cells
in vitro [5] = conditions: human, NCI H2052 cells
[6] = MTT cell proliferation assay, Panc 02.03; type: cell-based; conditions: human, Panc 02.03 cells, concentration causing 50% cell death of initial cell count over 24 hours, 1% DMSO
Experimental: as §3, §4, §5, §6

Panc 02.03 = assay: MTT cell proliferation assay, Panc 02.03; type: cell-based; conditions: Homo sapiens, concentration reducing cell growth by 50% after 72 hours, 1% DMSO
Experimental: as §3, §4, §5, §6

in vitro [7] = conditions: human, MOLT-4 cells

Sequence of human dCK (P27707 whole entry): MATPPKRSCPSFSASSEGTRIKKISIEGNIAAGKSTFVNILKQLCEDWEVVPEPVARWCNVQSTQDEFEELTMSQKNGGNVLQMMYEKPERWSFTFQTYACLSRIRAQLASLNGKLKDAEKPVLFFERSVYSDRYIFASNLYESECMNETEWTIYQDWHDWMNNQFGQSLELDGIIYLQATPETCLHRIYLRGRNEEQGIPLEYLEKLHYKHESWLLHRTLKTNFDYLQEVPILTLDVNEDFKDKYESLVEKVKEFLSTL

Row | Human dCK kinase substrate phosphorylation (human dCK) | D. melanogaster dNK substrate phosphorylation [1] | Compound | CC50 at 24 h [2] [µM] | EC50 (PFSK-1; PFSK-1, 72 h) [µM] | CC50 at 24 h [3] [µM] | EC50 (ZR-75-1; ZR-75-1, 72 h) [µM] | CC50 at 24 h (in vitro [4]) [µM] | CC50 at 24 h (in vitro [5]) [µM] | CC50 at 24 h [6] [µM] | EC50 (Panc 02.03) [µM] | EC50 (PFSK-1) [µM] | EC50 (ZR-75-1) [µM] | CC50 at 24 h (in vitro [7]) [µM]
1 | <1 10^−3 μmol/min mg | <0.1 10^6 μmol/min mg | COC(=O)c1cn([C@H]2S[C@@H](CO)C(O)[C@@H]2O)nn1 (stereo partly shown) [LCB-1013] | – | – | – | – | – | – | – | – | – | – | –
2 | 12 10^−3 μmol/min mg | 0.35 10^6 μmol/min mg | CC1(CO)C[C@H](n2ccc(N)nc2=O)O[C@@H]1CO (mixture of isomers) [LCB-1011] | > 500 | > 500 | > 500 | > 500 | > 500 | > 500 | – | – | – | – | –
3 | – | – | Nc1ccn([C@@H]2O[C@H](CO)[C@@H](O)[C@@H]2O)c(=O)n1 [Cytarabine, reference compound] | > 500 | – | > 500 | – | 428 | > 500 | > 500 | 300 | 360 | > 500 | > 500
4 | 17 10^−3 μmol/min mg | 5.94 10^6 μmol/min mg | CC1(CO)CC(n2ccc(N)nc2=O)O[C@@H]1CO (mixture of isomers) [LCB-1012] | > 500 | > 500 | > 500 | > 500 | > 500 | > 500 | – | – | – | – | –
5 | 63 10^−3 μmol/min mg | 0.2 10^6 μmol/min mg | CC1(C(N)=O)CC(n2ccc(N)nc2=O)O[C@@H]1CO (mixture of isomers) [LCB-1018] | > 500 | > 500 | > 500 | > 500 | > 500 | > 500 | > 500 | > 500 | – | – | –
